Assays:
Trypanosoma cruzi [1] = assay: microbe, parasite or virus in culture; format: functional, organism-based; settings: MHOM/MX/1994/Ninoa, 48 h
Description: Trypanocidal activity against Trypanosoma cruzi MHOM/MX/1994/Ninoa assessed as inhibition of parasite growth measured after 48 hrs by MTT assay

Trypanosoma cruzi [2] = assay: microbe, parasite or virus in culture; format: functional, organism-based; settings: MHOM/MX/1994/Ninoa, 24 h
Description: Antitrypanosomal activity against Trypanosoma cruzi MHOM/MX/1994/Ninoa infected in animal assessed as reduction in viable parasite in blood measured after 24 hrs by neubauer chamber assay

in vitro [3] = settings: mouse
Description: Selectivity index, ratio of CC50 for mouse J774.2 cells to IC50 for Trypanosoma cruzi ITRI/MX/2018/TH

[4] = Cytotoxicity against mouse J774.2 cells assessed as reduction in cell viability measured after 48 hrs by resazurin dye based assay
in vitro [5] = settings: mouse; remark: listed apart in the source
Description: Selectivity index, ratio of CC50 for mouse J774.2 cells to IC50 for Trypanosoma cruzi MHOM/MX/1994/Ninoa

Trypanosoma cruzi [6] = assay: microbe, parasite or virus in culture; format: functional, organism-based; settings: ITRI/MX/2018/TH, 48 h
Description: Trypanocidal activity against Trypanosoma cruzi ITRI/MX/2018/TH assessed as inhibition of parasite growth measured after 48 hrs by MTT assay

Structure (SMILES) | IC50 (Trypanosoma cruzi [1]) | IC50 (Trypanosoma cruzi [2]) | selectivity ratio (in vitro [3]; J774.2 cells) | CC50 at 48 h ([4]; J774.2 cells) | selectivity ratio (in vitro [5]; J774.2 cells) | IC50 (Trypanosoma cruzi [6]) | selectivity ratio (in vitro [3]) | CC50 at 48 h ([4]; j774.2) | selectivity ratio (in vitro [5])
C#C[C@]1(O)CC[C@H]2[C@@H]3CC=C4C[C@@H](O[N+](=O)[O-])CC[C@]4(CO[N+](=O)[O-])[C@H]3CC[C@@]21C | 2.8 µM | > 300 µM | 0.13 | 39.8 µM | 14.2 | 321 µM | – | – | –
C[C@]12CC[C@H](O[N+](=O)[O-])CC1=CC[C@@H]1[C@@H]2CC[C@]2(C)C(=O)CC[C@@H]12 | 33.2 µM | > 300 µM | 1 | 0.2 µM | 0.01 | 0.2 µM | – | – | –
C#C[C@]1(O[N+](=O)[O-])CC[C@H]2[C@@H]3CC=C4C[C@@H](O[N+](=O)[O-])CC[C@]4(CO[N+](=O)[O-])[C@H]3CC[C@@]21C | 2.12 µM | > 300 µM | 0.07 | 22.3 µM | 11 | 321 µM | – | – | –
C[C@]12CC[C@H]3[C@@H](CC=C4C[C@@H](O[N+](=O)[O-])CC[C@@]43CO[N+](=O)[O-])[C@@H]1CCC2=O | 48.3 µM | 295 µM | 0.3 | 130 µM | 2.68 | 430 µM | – | – | –
C[C@]12CC[C@H]3[C@@H](CC=C4C[C@@H](O[N+](=O)[O-])CC[C@@]43C)[C@@H]1CC[C@@H]2O[N+](=O)[O-] | 347 µM | > 300 µM | 1.89 | 151 µM | 0.44 | 77 µM | – | – | –
C[C@]12CC[C@H]3[C@@H](CC=C4C[C@@H](O)CC[C@@]43CO)[C@@H]1CCC2=O | 36.2 µM | > 300 µM | 0.15 | 75.4 µM | 2.08 | 476 µM | – | – | –
C[C@]12CC[C@H]3[C@@H](CC=C4C[C@@H](O)CC[C@@]43C)[C@@H]1CC[C@@H]2O [ANDROSTENEDIOL] | 2.23 µM | > 300 µM | – | – | – | 37.1 µM | 7.5 | 278 µM | 125
O=C(Cn1ccnc1[N+](=O)[O-])NCc1ccccc1 [BENZNIDAZOLE] | – | – | – | – | – | 39.1 µM | – | – | –
CC1CS(=O)(=O)CCN1/N=C/c1ccc([N+](=O)[O-])o1 (stereo unspecified) [NIFURTIMOX] | 7.09 µM | – | – | – | – | 19.3 µM | – | – | –
C[C@]12CC[C@H](O)CC1=CC[C@@H]1[C@@H]2CC[C@]2(C)C(=O)CC[C@@H]12 [PRASTERONE] | 62 µM | > 300 µM | 14.3 | 198 µM | 3.19 | 13.8 µM | – | – | –

From ChEMBL document CHEMBL5032525, “In vitro, ex vivo and in vivo short-term screening of DHEA nitrate derivatives activity over Trypanosoma cruzi Ninoa and TH strains from Oaxaca State, México” (Bioorg Med Chem, 2021)
